From publication PMC9686928, “10-mer and 9-mer WALK Peptides with Both Antibacterial and Anti-Inflammatory Activities” (Antibiotics, 2022)
In brackets after ≈: the same amount, converted by molar mass. Where no end group is shown, it is not given here.

What was measured:
[1] = test system: Bacillus subtilis ATCC 6633; assay: microbe, parasite or virus in culture; assay type: cell-based; conditions: Gram-positive, broth microdilution, Luria-Bertani broth, 1–64 μg/mL two-fold serial dilutions, lowest concentration that completely inhibited growth, triplicate
Experimental: (§1) The antimicrobial activity of each peptide was assessed against four strains, including two Gram-positive (Bacillus subtilis ATCC 6633 and Staphylococcus aureus ATCC 6538p) and two Gram-negative bacteria (Escherichia coli ATCC 25922 and Shigella dysentariae ATCC 9752) cultured in Luria-Bertani broth media. Antibacterial susceptibility was determined as the MIC value, which was measured using the standard broth microdilution method as described previously. […] Two conventional antibiotics, ampicillin and kanamycin, were used as controls to confirm antibiotic susceptibility. The tests were performed in triplicate, and the MIC values that were reproduced twice or thrice in the three independent measurements were employed to calculate the GM value.

[2] = test system: Escherichia coli ATCC 25922; assay: microbe, parasite or virus in culture; assay type: cell-based; conditions: Gram-negative, broth microdilution, Luria-Bertani broth, 1–64 μg/mL two-fold serial dilutions, triplicate
Experimental: as §1

[3] = test system: Shigella dysentariae ATCC 9752; assay: microbe, parasite or virus in culture; assay type: cell-based; conditions: Gram-negative, broth microdilution, Luria-Bertani broth, 1–64 μg/mL two-fold serial dilutions, triplicate
Experimental: as §1

[4] = test system: Staphylococcus aureus ATCC 6538p; assay: microbe, parasite or virus in culture; assay type: cell-based; conditions: Gram-positive, broth microdilution, Luria-Bertani broth, 1–64 μg/mL two-fold serial dilutions, triplicate
Experimental: as §1

[5] = test system: two Gram-positive and two Gram-negative bacterial strains; assay: Antimicrobial assay, MICs over the four strains (geometric mean); assay type: cell-based, B. subtilis, S. aureus, E. coli, S. dysentariae; conditions: geometric mean of the MICs against the four strains
Experimental: as §1

[6] = test system: human red blood cells; conditions: human red blood cells 10% v/v in PBS, 1 h; for MHC, minimal hemolytic concentration: lowest concentration showing 5% or more hemolysis, 1–64 μg/mL, A550, relative to 0.2% Triton X-100, triplicate; for percentage hemolysis: at 64 μg/mL, relative to 0.2% Triton X-100, average of three measurements
Experimental: Briefly, suspensions of human red blood cells (10% v/v in PBS) were treated for 1 h with various concentrations (1–64 μg/mL, two-fold serial dilutions) of peptides, followed by measurement of the absorbance of the supernatant at 550 nm. The relative attenuation was determined as the percentage of hemolysis compared to that of the blood suspension treated with 0.2% Triton X-100. The tests were performed in triplicate, and the average values of three independent measurements were recorded.

[7] = test system: LPS-stimulated J774A.1 cells; assay: Nitric oxide (NO) production, Griess reaction assay; assay type: cell-based, murine; conditions: LPS 100 ng/mL 16 h; for inhibitory effect against NO production: peptides 8, 4 and 2 μM, pretreatment 5 min, nitrite by Griess
Experimental: NT, non-treated; LPS, lipopolysaccharides. (A) Cytotoxicity was assessed using the MTT assay. […] (B) Anti-inflammatory potential deduced by NO assay.
The macrophage cells were seeded (3 × 10^4 cells/well) and incubated in 96-well plates for 24 h, followed by pretreatments with the WALK peptides at designated concentrations for 5 min and subsequent stimulation with 100 ng/mL of LPS for 16 h. The nitrite concentration in the culture medium was determined using the Griess reaction assay. Briefly, the culture supernatant (100 μL) was mixed with an equal volume of Griess reagent (1% sulfanilamide, 0.1% N-1-naphthyl ethylenediamine) and incubated for 5 min. The absorbance of the resulting chromophoric azo-derivative molecules was measured at 550 nm using a microplate reader with a fresh culture medium as a blank. The amount of nitrite in each sample was determined using a standard curve generated using a range of dilutions of sodium nitrite solutions.

[8] = test system: J774A.1 cells; conditions: peptides 8, 4 and 2 μM, 16 h
Experimental: (A) Cytotoxicity was assessed using the MTT assay. The cells were treated with lipopolysaccharides (LPS, 100 ng/mL) or peptides (8–2 μM, two-fold serial dilutions) for 16 h, followed by estimating the cell viability as the percentage of surviving cells compared to that of the control cells.
(§2) Macrophage cells seeded in 96-well cell culture plates at a density of 3 × 10^4 cells/well were incubated for 24 h, followed by treatment with LPS or individual WALK peptides and subsequent incubation for 16 h. Cell viability was then assessed by the conventional MTT assay. Briefly, the medium in each well was replaced with 100 μL of RPMI medium containing MTT (500 μg/mL). After 2 h of incubation, the medium was discarded and the insoluble formazan in each well was dissolved in 100 μL of DMSO with shaking. The absorbance of the solution at 550 nm was measured using a spectrophotometric microplate reader to determine the percentage of cell viability relative to that of control cells.

[9] = test system: RAW264.7 cells; conditions: at the concentrations tested, 16 h
Experimental: as §2

Compound	MIC ([1]; Bacillus subtilis, ATCC6633, read-out: MIC, B. subtilis) [µg/mL]	MIC ([2]; Escherichia coli, ATCC25922) [µg/mL]	MIC ([3]; Shigella, ATCC9752, read-out: MIC, S. dysentariae) [µg/mL]	MIC ([4]; Staphylococcus aureus, ATCC6538P, read-out: MIC, S. aureus) [µg/mL]	geometric mean MIC ([5]; read-out: GM, geometric mean of MICs) [µg/mL]	MIC, B. subtilis [1] [µg/mL]	MIC, E. coli [2] [µg/mL]	MIC, S. dysentariae [3] [µg/mL]	MIC, S. aureus [4] [µg/mL]	GM, geometric mean of MICs [5] [µg/mL]	MHC, minimal hemolytic concentration [6] [µg/mL]	NO inhibition at 8 μM ([7]; peptide 8 μM)	inhibitory effect against NO production [7]	cytotoxicity (MTT assay) [8]	cytotoxicity (MTT assay) [9]	percentage hemolysis [6] [%]
CC1(C)S[C@@H]2[C@H](NC(=O)[C@H](N)c3ccccc3)C(=O)N2[C@H]1C(=O)O [Ampicillin, ampicillin, reference compound]	≤ 1	≤ 1	≤ 1	≤ 1	≤ 1											
NC[C@H]1O[C@H](O[C@H]2[C@H](O)[C@@H](O[C@H]3O[C@H](CO)[C@@H](O)[C@H](N)[C@H]3O)[C@H](N)C[C@@H]2N)[C@H](O)[C@@H](O)[C@@H]1O [Kanamycin, kanamycin, reference compound]						4 (≈ 8.26 µM)	4 (≈ 8.26 µM)	8 (≈ 16.5 µM)	4 (≈ 8.26 µM)	4.8						
KKLLKWLLKW-NH2 [WALK244.06]						2	16	16	3	6.3	32					
KLLKWLKKWL-NH2 [WALK244.05]						2	2	4	2	2.4	32	near-complete NO inhibition	dose-dependent inhibitory effect	no significant cytotoxicity		
KLLKWLLKW-NH2 [WALK243.05]						2	2	16	2	3.4	64				did not demonstrate significant cytotoxicity	
KWLKKLLKWL-NH2 [WALK244.09]						≤1	2	2	2	≤1.7	8					80.7
KWLLKLLKW-NH2 [WALK243.09]						4	8	16	4	6.7	64					
KWLLKWLKKL-NH2 [WALK244.02]						2	2	8	2	2.8	32		dose-dependent inhibitory effect	no significant cytotoxicity		
KWLLKWLLK-NH2 [WALK243.02]						4	4	16	4	5.7	64				did not demonstrate significant cytotoxicity	6.7
LKKWLKWLL-NH2 [WALK243.07]						2	2	4	2	2.4	16					
LKKWLKWLLK-NH2 [WALK244.07]						2	2	8	2	2.8	32		dose-dependent inhibitory effect	no significant cytotoxicity		
LKWLKKLLKW-NH2 [WALK244.10]						2	8	8	2	4.0	32					
LKWLKWLLK-NH2 [WALK243.06]						2	2	8	2	2.8	32				did not demonstrate significant cytotoxicity	
LKWLLKWLK-NH2 [WALK243.03]						4	8	16	4	6.7	32					
LKWLLKWLKK-NH2 [WALK244.03]						8	8	32	8	11.3	64					
WLKKLLKWL-NH2 [WALK243.08]						2	2	2	2	2.0	8					
WLKKLLKWLK-NH2 [WALK244.08]						2	2	4	≤1	≤2.0	8					
WLKKWLKKLL-NH2 [WALK244.01]						≤1	2	2	2	≤1.7	16					
WLLKWLKKL-NH2 [WALK243.01]						4	4	8	4	4.8	32					
